Tests used:
[1] = Bulk density determination (50 mL measuring cylinder, free-fall impact until compacted); format: physicochemical; conditions: sample compacted in 50 mL measuring cylinder, free-fall impact at 5 cm height
Description: Determination method of bulk density: A sample of an example is added to a 50 mL measuring cylinder and continuously subjected to free-fall impact at a height of 5 cm until the sample is compacted, and then a mass of the sample is measured to obtain bulk density data.

[2] = Accelerated stability test (ICH guideline), purity of the stored sucralose product by HPLC; format: physicochemical; conditions: 40° C. ± 2° C., 60% RH ± 5% RH
Description: A test and analysis method for the purity of sucralose involved in the present disclosure could refer to the Chinese National Standard “GB25531-2010 for Food Additive Sucralose”.
Analysis and determination conditions of the purity of sucralose: High-performance liquid chromatograph from Shimadzu, Japan: RID-10A differential refractive index detector, LC-10ADVP high-pressure pump, and CTO-10ASVP incubator; chromatographic column: Agilent XDB C18 column (250 mm×4.6 mm, 5 μm); mobile phase: methanol-0.125% dipotassium phosphate (DKP) aqueous solution (4:6); column temperature: 30° C.; and flow rate: 1.0 mL/min. Methanol (chromatographically pure), DKP (analytically pure), UPW, and sucralose (purity: 99.9%) are required, and a content is determined by an external standard method.
The products obtained according to Examples 1 to 6 and Comparative Examples 1 to 3 each were subjected to an accelerated stability test.

SMILES: OC[C@H]1O[C@H](O[C@]2(CCl)O[C@H](CCl)[C@@H](O)[C@@H]2O)[C@H](O)[C@@H](O)[C@H]1Cl [Example 2, sucralose]
- Bulk density [1]: 1.056 g/mL
- Purity after storage, One month [2]: 99.65%
- Purity after storage, Six months [2]: 99.50%
- Purity after storage, Three months [2]: 99.59%
- Purity after storage, Twelve months [2]: 99.33%
- Purity after storage, Twenty-four months [2]: 98.98%

SMILES: OC[C@H]1O[C@H](O[C@]2(CCl)O[C@H](CCl)[C@@H](O)[C@@H]2O)[C@H](O)[C@@H](O)[C@H]1Cl [Example 5, sucralose]
- Bulk density [1]: 1.103 g/mL
- Purity after storage, One month [2]: 99.85%
- Purity after storage, Six months [2]: 99.73%
- Purity after storage, Three months [2]: 99.79%
- Purity after storage, Twelve months [2]: 99.60%
- Purity after storage, Twenty-four months [2]: 99.35%

SMILES: OC[C@H]1O[C@H](O[C@]2(CCl)O[C@H](CCl)[C@@H](O)[C@@H]2O)[C@H](O)[C@@H](O)[C@H]1Cl [Example 6, sucralose]
- Purity after storage, One month [2]: 99.74%
- Purity after storage, Six months [2]: 99.63%
- Purity after storage, Three months [2]: 99.70%
- Purity after storage, Twelve months [2]: 99.51%
- Purity after storage, Twenty-four months [2]: 99.23%

SMILES: OC[C@H]1O[C@H](O[C@]2(CCl)O[C@H](CCl)[C@@H](O)[C@@H]2O)[C@H](O)[C@@H](O)[C@H]1Cl [Comparative Example 1, sucralose]
- Bulk density [1]: 0.981 g/mL
- Purity after storage, One month [2]: 99.61%
- Purity after storage, Six months [2]: 99.51%
- Purity after storage, Three months [2]: 99.57%
- Purity after storage, Twelve months [2]: 99.38%
- Purity after storage, Twenty-four months [2]: 99.12%

SMILES: OC[C@H]1O[C@H](O[C@]2(CCl)O[C@H](CCl)[C@@H](O)[C@@H]2O)[C@H](O)[C@@H](O)[C@H]1Cl [Example 4, sucralose]
- Bulk density [1]: 1.110 g/mL
- Purity after storage, One month [2]: 99.94%
- Purity after storage, Six months [2]: 99.85%
- Purity after storage, Three months [2]: 99.91%
- Purity after storage, Twelve months [2]: 99.73%
- Purity after storage, Twenty-four months [2]: 99.69%

SMILES: OC[C@H]1O[C@H](O[C@]2(CCl)O[C@H](CCl)[C@@H](O)[C@@H]2O)[C@H](O)[C@@H](O)[C@H]1Cl [Example 3, sucralose]
- Bulk density [1]: 1.067 g/mL
- Purity after storage, One month [2]: 99.63%
- Purity after storage, Six months [2]: 99.47%
- Purity after storage, Three months [2]: 99.56%
- Purity after storage, Twelve months [2]: 99.26%
- Purity after storage, Twenty-four months [2]: 98.87%

SMILES: OC[C@H]1O[C@H](O[C@]2(CCl)O[C@H](CCl)[C@@H](O)[C@@H]2O)[C@H](O)[C@@H](O)[C@H]1Cl [Comparative Example 3, sucralose]
- Bulk density [1]: 0.979 g/mL
- Purity after storage, One month [2]: 99.63%
- Purity after storage, Six months [2]: 99.50%
- Purity after storage, Three months [2]: 99.58%
- Purity after storage, Twelve months [2]: 99.35%
- Purity after storage, Twenty-four months [2]: 99.04%

SMILES: OC[C@H]1O[C@H](O[C@]2(CCl)O[C@H](CCl)[C@@H](O)[C@@H]2O)[C@H](O)[C@@H](O)[C@H]1Cl [Example 1, sucralose]
- Bulk density [1]: 1.109 g/mL
- Purity after storage, One month [2]: 99.95%
- Purity after storage, Six months [2]: 99.87%
- Purity after storage, Three months [2]: 99.92%
- Purity after storage, Twelve months [2]: 99.79%
- Purity after storage, Twenty-four months [2]: 99.56%

SMILES: OC[C@H]1O[C@H](O[C@]2(CCl)O[C@H](CCl)[C@@H](O)[C@@H]2O)[C@H](O)[C@@H](O)[C@H]1Cl [Raw material, sucralose]
- Bulk density [1]: 0.978 g/mL
- Purity after storage, One month [2]: 99.36%
- Purity after storage, Six months [2]: 99.05%
- Purity after storage, Three months [2]: 99.12%
- Purity after storage, Twelve months [2]: 98.78%
- Purity after storage, Twenty-four months [2]: 98.42%

SMILES: OC[C@H]1O[C@H](O[C@]2(CCl)O[C@H](CCl)[C@@H](O)[C@@H]2O)[C@H](O)[C@@H](O)[C@H]1Cl [Comparative Example 2, sucralose]
- Bulk density [1]: 1.021 g/mL
- Purity after storage, One month [2]: 99.73%
- Purity after storage, Six months [2]: 99.63%
- Purity after storage, Three months [2]: 99.69%
- Purity after storage, Twelve months [2]: 99.47%
- Purity after storage, Twenty-four months [2]: 99.20%

From patent US20230374054A1, “METHOD FOR PURIFYING SUCRALOSE” (ANHUI JINHE INDUSTRIAL CO., LTD., priority 2020, published 2023)
